From ChEMBL document CHEMBL3507680, “University of Dundee, Gates Library screen for HepG2 cell viability”

Test: Human HepG2 cell viability assay in 384 well format
Type: toxicity, cell-based
Set-up: dose 125 nL, time 70.5 hour; concentration not given beside the values
Conditions: HepG2 cells, read-out: Inhibition

SMILES | cytotoxicity at 70.5 h [%]
COc1cccc(N2CC3(CCN(c4cc(OC)ncn4)C3)CC2=O)c1 (configuration not stated) | 7.12
Cc1ccsc1[C@@H]1CCN(C(=O)CCC(=O)c2ccccc2)C[C@H]1O | -9.94
Cc1noc(C)c1CN1CC[C@H]2C[C@H](c3nccs3)O[C@@H]2C1 | -9.22
CN1CCN(Cc2cn3c(n2)CN(Cc2cccc(F)c2)CC3)CC1 | -11.9
CCOc1cccc(CCNC(=O)NC2CCc3[nH]ncc3C2)n1 (configuration not stated) | 24.3
COc1cccc(N2CCN(C(=O)CN(C)c3cnccn3)CC2)c1 | -1.38
O=C(CC(F)(F)F)N1C[C@H]2CCN[C@H]2C1 | -2.74
OC(CN(Cc1ccccc1)Cc1ccon1)c1cccs1 (configuration not stated) | -5.21
Cc1nc(C(=O)N(C)CC2CCCO2)nn1-c1ccccc1C(C)C (configuration not stated) | -5.46
COc1cc2c(cc1OC)CCN(C(=O)Cn1nc(C)cc1C)CC2 | 2.01
O=C(Cc1ccccn1)N1CCC2(CC1)[C@H](O)C[C@@H]2O | -12.4
O=S(=O)(NCc1cccnc1OC1CCCC1)N1CCCCC1 | 0.259
CCNC(=O)N1C[C@@H]2OCC(=O)N(C(C)C)[C@@H]2C1 | -0.389
O=C(CNc1nc(C(F)(F)F)cs1)N1CCc2sccc2C1 | -8.73
CCn1nc(C)c(-c2cncn2CCN(C)C2CCCC2)c1C | -7.35
CCn1nc(CC(C)C)cc1C(=O)N1C[C@H](O)[C@@H](N2CCCCC2)C1 | -4.55
Cc1cc(C(=O)N(C)Cc2cccs2)nc(N2CCCCC2)n1 | -6.38
CCOCc1nc2c(c(N3CCCn4nc(C)cc4C3)n1)CCNCC2 | 23.6
COc1cccc(CCNC(=O)CCS(=O)(=O)C2CCCC2)c1 | -12.4
Cc1nn(C)cc1-c1ccnc(N(C)Cc2cnn(C)c2)n1 | -2.26
O=C(O)CCNC(=O)C1(c2cccc(Br)c2)CCOCC1 | -0.861
COc1ccnc(N(C)Cc2c(C)noc2C)n1 | -3.59
CC1(C)OCC2(CO1)CN(C(=O)c1ccccc1Br)C2 | -4.2

SMILES | cytotoxicity at 70.5 h [%]
COCC(=O)N1CCC2(CC1)CCn1c(-c3cccc(OC)c3)cnc12 | 36.2
CCN(CC)S(=O)(=O)NC(C)C(=O)N(C)C (configuration not stated) | 0.169
CN1CCN(C(=O)[C@H]2CC[C@@H]3[C@@H](CCN3Cc3nccs3)O2)CC1 | -13.2
Cn1cnnc1C1CCN(c2nc3ccccc3o2)CC1 | -5.83
COCCNc1ncc(-c2cccc(F)c2)c(-c2nccn2C)n1 | 11
Cc1cnn(CC(C)Nc2nc3ccccc3o2)c1 (configuration not stated) | 24.3
Cn1cc(CC(=O)N2CCCC(n3cncn3)C2)cn1 (configuration not stated) | -3.54
COc1ccc(CN(C)C2CCN(S(C)(=O)=O)CC2)c2cccnc12 | -1.77
CN(CC(N)=O)Cc1cc(Cl)cc2cccnc12 | -8.6
CNc1cc(C)nc(NC2CCCN(C3Cc4ccccc4C3)C2)n1 (configuration not stated) | 28.6
CSc1nc(C2CC2)nc(C)c1C(=O)NCc1ccco1 | 16.1
CC1=N[C@@]2(CC[C@@H]3CN(S(C)(=O)=O)C[C@@H]32)C(=O)N1CC(C)C | -15.6
Cc1ncc(C(=O)N2CCCCC2c2nc3cc(F)ccc3[nH]2)c(O)n1 (configuration not stated) | -20
Cc1noc(C)c1CN1CCN(c2ccnc(-c3ccccc3)n2)CC1 | 26.5
COc1ccc2cc(C(=O)N3CCCC(n4ccnc4C)C3)[nH]c2c1 (configuration not stated) | 0.0549
CN(C(=O)c1cccc(NCc2cccs2)c1)C(C1CC1)C1CC1 | -11.2
CCN(CC)S(=O)(=O)N1C[C@@H]2CC[C@H](C1)N(Cc1cscn1)C2=O | -9.09
CC(C)CC(CNC(=O)c1cccnc1Oc1cccnc1)N(C)C (configuration not stated) | 8.64
CC(C)NC(=O)[C@@H]1C[C@H](N)CN1C(=O)c1cc2c([nH]c1=O)CCCC2 | -7.39
CCS(=O)(=O)N1CCC[C@]2(C(=O)N(C)C)CN(c3ncccn3)C[C@@H]2C1 | 11.9
CC(NC(=O)CCC(C)(C)C)C(=O)Nc1ccc(-n2cncn2)cc1 (configuration not stated) | -24.9
CCn1ccnc1S(=O)(=O)Cc1c(C)cc(C)c(C(C)=O)c1C | -6.82
O=C(CCc1ccccn1)N1CCCN(C(=O)CC2CCCC2)CC1 | 4.27

SMILES | cytotoxicity at 70.5 h [%]
Cc1ccc(C(=O)NC2CC2)c(-n2cnnn2)c1C | -17.7
COc1ccc(C(=O)N2CCC(Nc3ccc(C)nn3)CC2)c(F)c1 | -6.97
Cc1cc(CNC(=O)N2CCOC(c3ccccc3Cl)C2)no1 (configuration not stated) | -7.66
Cc1cc(C)c(C#N)c(NCCSc2nncn2C)n1 | -6.87
COCCN1CCCC(O)(CN2CCN(c3cc(C)ccn3)CC2)C1=O (configuration not stated) | -0.635
CC(c1cccc(S(N)(=O)=O)c1)N(C)CCOc1ccccc1 (configuration not stated) | -16.8
CN(C)CCNc1cc(-c2ncccc2Cl)c2cc[nH]c2n1 | 1.89
Cc1cc(F)c(S(=O)(=O)Nc2ccn(CCC#N)n2)cc1F | -16.3
CCOCCNC(=O)Nc1cccc(-c2nccn2C)c1 | -10
CCOc1ccc(C#N)cc1NC(=O)N1CCCC(NC(=O)CC)C1 (configuration not stated) | -7.12
CC(C)(C)NC(=O)COc1ccc(Oc2ccccn2)cc1 | -6.32
Cc1cc(-c2cnc(N3CCNC(=O)C3)nc2-c2cccnc2C)on1 | -15.9
CCC1(CO)CCCN(C(=O)c2cc(COc3ccccc3F)[nH]n2)C1 (configuration not stated) | -0.863
Cc1nc(NCCSc2cnn[nH]2)c2cccnc2n1 | 5.69
Cc1ccc(C2(CN3CCN(Cc4cnc(C)n4C)CC3)CC2)cc1 | 32.9
Cc1nnc([C@]23COC[C@H]2CN(Cc2nccs2)C3)o1 | -10.3
N#Cc1cccnc1NCc1cccc(C(=O)NCC2CCCCO2)c1 (configuration not stated) | -10.4
COCCNC(=O)Cn1cc2c(n1)c(C)nn2C | -9.77
CCC(CCO)NS(=O)(=O)c1ccc(Br)cn1 (configuration not stated) | -0.693
COc1c(C2SCC(=O)Nc3[nH]ncc32)cc2c(c1OC)OCO2 (configuration not stated) | -13.6
CC(=O)N1C[C@H](NC(=O)c2cscn2)[C@@H]2OCCC[C@@H]21 | -16.1
Cc1cc(C[S+]([O-])Cc2ccccc2F)no1 (configuration not stated) | 16.6
O=C(O)c1ccnc(-c2ccnc(COc3ccc(Cl)cc3)n2)c1 | -9.69

SMILES | cytotoxicity at 70.5 h [%]
CC1(C)OC(=O)N(CCCOc2ccc(F)cc2)C1=O | -11.6
Cc1ccc(C(=O)NCC(O)c2ccc(F)c(F)c2)c(=O)[nH]1 (configuration not stated) | -10.6
Cc1nc(N2CCOCC2)nc2c1COCC21CCN(CC(C)C)C1 (configuration not stated) | -5.39
CCCn1cc(C(=O)NCC(=O)NC2CC2)c(C)n1 | -0.483
Cc1nc[nH]c1CN1C[C@@H]2CC[C@H](C1)N(C(=O)CCc1cccnc1)C2 | -11.7
CC(=O)N(C)C1CCN(C(=O)c2cccc3c2ccn3C)CC1 | 24.8
Cc1cc(C[C@@H]2CCC[C@H]2NCc2ccccc2C(F)(F)F)on1 | -17.3
CC(=O)N1CCO[C@@H]2CN(S(=O)(=O)c3ccc(C)cc3)CC[C@@H]2C1 | 11.2
Cc1ccc(NC2CCN(C(=O)CCc3c(C)noc3C)CC2)nn1 | -11.1
Cc1cccc2c1nc(COCC(=O)O)n2-c1ccsc1 | -4.32
O=C(NCCCN1CCc2ccccc2C1)c1ccccc1Cl | -7.27
CCc1nc(CN(C)C2CCN(CC(F)(F)F)C2)no1 (configuration not stated) | -4.19
CC(C)(C)CC(=O)N1CC[C@H]2NC(=O)N(Cc3ccccc3)C(=O)[C@H]21 | -4.69
Cc1ccc(CN2CC[C@H]3OCC[C@@H](C(=O)N4CCCCO4)[C@@H]3C2)o1 | 47.1
CN(Cc1cccnc1)C[C@H]1OC[C@@H]2CCN(C(=O)C3CC3)C[C@@H]21 | -9.16
Cn1cc(CN2CCC3(CC2)CCN(C(=O)c2cscn2)CC3)cn1 | -1.71
CC(C)NC(=O)CN1CCC2(CC1)OCCO2 | -2.05
CCn1nc(C)c(CCNC(=O)c2cccc(NCC(=O)O)c2)c1C | 1.17
CCCn1ncc(-c2nc3c(cnn3CC)[nH]2)c1C | -7.07
O=C(NCc1cccnc1N1CCCCC1)c1cccs1 | -3.28
O=C(C[S+]([O-])Cc1csc(C2CCCC2)n1)Nc1ccccc1 (configuration not stated) | -17.5
COCC(=O)N1CCC(c2cc(C(F)(F)F)c3c(C)noc3n2)CC1 | 12.4
c1ccc2c(Cc3nnc([C@H]4CCNC4)o3)c[nH]c2c1 | -2.38

SMILES | cytotoxicity at 70.5 h [%]
COc1ccnc(N2CCN(Cc3ncc(C(C)(C)C)o3)CC2)n1 | 6.11
NC(=O)c1c(NC(=O)C2CCCO2)sc2c1CCc1ccccc1-2 (configuration not stated) | -3.81
CC1CCCN1Cc1cccc(C(=O)Nc2ccc3c(c2)CCC3=O)c1 (configuration not stated) | 5.96
COc1ncc(NCc2ccc(Cl)c(Cl)c2)cc1C(N)=O | -5.01
Cc1cnc(N2CCC3(CC2)C(c2ccccc2)CC(=O)N3C)nc1 (configuration not stated) | -10.2
Cc1noc(C(C)N(C)Cc2ccco2)n1 (configuration not stated) | -6.09
CCC(=O)N1CCC(c2nc(N3CCCCC3)ncc2S(C)(=O)=O)CC1 | -2.83
Fc1ccc(CN2CCCC(c3nccnc3-n3ccnc3)C2)cc1 (configuration not stated) | 3.95
c1cncc(CN(Cc2ccc(-n3ccnc3)cc2)CC2CCCO2)c1 (configuration not stated) | 13.2
COc1ccc(CNC(C)Cn2cccn2)cc1OC (configuration not stated) | 1.53
O=C(CN1CCS(=O)(=O)CC1)NC1CCCc2ccccc21 (configuration not stated) | -7.89
CCC(=O)NCC(=O)Nc1ncc(I)cc1C | 0.64
c1ncn(CC2CN(CC3CCCCC3)CCO2)n1 (configuration not stated) | 2.16
CCc1ncc2c(n1)CN(CC(=O)Nc1ccncc1)CC2 | -3.06
CC(C)(C)CN1CC(COc2ccccc2)Oc2ccncc2S1(=O)=O (configuration not stated) | 10.8
CCC1c2ccsc2CCN1C(=O)NCc1ccccn1 (configuration not stated) | -6.47
CCOCCC(=O)N(C)CC1Cc2ccccc2CN1C (configuration not stated) | -0.994
CCCc1noc(CCC(=O)N2CCCCC2Cn2cc(C)cn2)n1 (configuration not stated) | -13.5
c1ccc(OCc2nnn3c2CN(c2ncccn2)CCC3)nc1 | 6.14
CCCS(=O)(=O)CC(=O)Nc1cc(CC(C)(C)C)n[nH]1 | -0.508
